These compounds were tested on LNCaP (assay: SRB colorimetric cell growth inhibition assay, LNCaP). Details: Homo sapiens, LNCaP, LN-caP; GI=growth inhibition; read-out: GI50 LN-caP.
Assay type: cell-based
Summary of the method: (§1)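 Growth inhibition (GI), cytostatic total growth inhibition (TGI) and cytotoxic cell-kill (LC) parameters were calculated from SRB-stained cultures held under constant compound exposure, triplicates averaged.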
With `COc1cc(-c2c3c4cc(OC)c(OC(=O)[C@H](C)N)cc4oc(=O)c3n3ccc4cc(OC(=O)[C@H](C)N)c(OC)cc4c23)ccc1OC(=O)[C@H](C)N` [Compound 199] the GI50 was 15.8 nM.

Same assay, conditions: Homo sapiens, LNCaP, LN-caP; cell killing (cytotoxic effect); read-out: LC50 LN-caP
`COc1cc(-c2c3c4cc(OC)c(OC(=O)[C@H](C)N)cc4oc(=O)c3n3ccc4cc(OC(=O)[C@H](C)N)c(OC)cc4c23)ccc1OC(=O)[C@H](C)N` [Compound 199] gave a CC50 of 392 nM.

Same assay, conditions: Homo sapiens, LNCaP, LN-caP; total growth inhibition (cytostatic effect); read-out: TGI LN-caP
For `COc1cc(-c2c3c4cc(OC)c(OC(=O)[C@H](C)N)cc4oc(=O)c3n3ccc4cc(OC(=O)[C@H](C)N)c(OC)cc4c23)ccc1OC(=O)[C@H](C)N` [Compound 199], the IC (TGI) was 89.2 nM.

What follows are compounds tested on HeLa-APL (assay: SRB colorimetric cell growth inhibition assay, HeLa-APL (aplidine resistant)). Details: Homo sapiens, HELA-APL; GI=growth inhibition; read-out: GI50 HELA-APL.
Assay type: cell-based
Summary of the method: as §1
In the case of `COc1cc(-c2c3c4cc(OC)c(OC(=O)[C@H](C)N)cc4oc(=O)c3n3ccc4cc(OC(=O)[C@H](C)N)c(OC)cc4c23)ccc1OC(=O)[C@H](C)N` [Compound 199], the GI50 is reported as 71.8 nM.

Same assay, conditions: Homo sapiens, HELA-APL; cell killing (cytotoxic effect); read-out: LC50 HELA-APL
`COc1cc(-c2c3c4cc(OC)c(OC(=O)[C@H](C)N)cc4oc(=O)c3n3ccc4cc(OC(=O)[C@H](C)N)c(OC)cc4c23)ccc1OC(=O)[C@H](C)N` [Compound 199] showed a CC50 of 574 nM.

Same assay, conditions: Homo sapiens, HELA-APL; total growth inhibition (cytostatic effect); read-out: TGI HELA-APL
`COc1cc(-c2c3c4cc(OC)c(OC(=O)[C@H](C)N)cc4oc(=O)c3n3ccc4cc(OC(=O)[C@H](C)N)c(OC)cc4c23)ccc1OC(=O)[C@H](C)N` [Compound 199] showed an IC (TGI) of 242 nM.

What follows are compounds tested on PANC-1 (assay: SRB colorimetric cell growth inhibition assay, PANC-1). Details: Homo sapiens, PANC-1, PANC-1; GI=growth inhibition; read-out: GI50 PANC-1.
Assay type: cell-based
Summary of the method: as §1
`COc1cc(-c2c3c4cc(OC)c(OC(=O)[C@H](C)N)cc4oc(=O)c3n3ccc4cc(OC(=O)[C@H](C)N)c(OC)cc4c23)ccc1OC(=O)[C@H](C)N` [Compound 199] gave a GI50 of 36.9 nM.

Same assay, conditions: Homo sapiens, PANC-1, PANC-1; cell killing (cytotoxic effect); read-out: LC50 PANC-1
Work on `COc1cc(-c2c3c4cc(OC)c(OC(=O)[C@H](C)N)cc4oc(=O)c3n3ccc4cc(OC(=O)[C@H](C)N)c(OC)cc4c23)ccc1OC(=O)[C@H](C)N` [Compound 199] yielded a CC50 of 8080 nM.

Same assay, conditions: Homo sapiens, PANC-1, PANC-1; total growth inhibition (cytostatic effect); read-out: TGI PANC-1
Work on `COc1cc(-c2c3c4cc(OC)c(OC(=O)[C@H](C)N)cc4oc(=O)c3n3ccc4cc(OC(=O)[C@H](C)N)c(OC)cc4c23)ccc1OC(=O)[C@H](C)N` [Compound 199] yielded an IC (TGI) of 276 nM.

These compounds were tested on K-562 (assay: SRB colorimetric cell growth inhibition assay, K-562). Details: Homo sapiens, K562, K-562; GI=growth inhibition; read-out: GI50 K-562.
Assay type: cell-based
Summary of the method: as §1
For `COc1cc(-c2c3c4cc(OC)c(OC(=O)[C@H](C)N)cc4oc(=O)c3n3ccc4cc(OC(=O)[C@H](C)N)c(OC)cc4c23)ccc1OC(=O)[C@H](C)N` [Compound 199], the GI50 was 11.2 nM.

Same assay, conditions: Homo sapiens, K562, K-562; cell killing (cytotoxic effect); read-out: LC50 K-562
With `COc1cc(-c2c3c4cc(OC)c(OC(=O)[C@H](C)N)cc4oc(=O)c3n3ccc4cc(OC(=O)[C@H](C)N)c(OC)cc4c23)ccc1OC(=O)[C@H](C)N` [Compound 199] the CC50 was 281 nM.

Same assay, conditions: Homo sapiens, K562, K-562; total growth inhibition (cytostatic effect); read-out: TGI K-562
Compound `COc1cc(-c2c3c4cc(OC)c(OC(=O)[C@H](C)N)cc4oc(=O)c3n3ccc4cc(OC(=O)[C@H](C)N)c(OC)cc4c23)ccc1OC(=O)[C@H](C)N` [Compound 199] has an IC (TGI) of 55.5 nM.

The compounds below were run on LoVo-Dox (assay: SRB colorimetric cell growth inhibition assay, LoVo-Dox (MDR)). Details: Homo sapiens, LOVO-DOX; GI=growth inhibition; read-out: GI50 LOVO-DOX.
Assay type: cell-based
Summary of the method: as §1
With `COc1cc(-c2c3c4cc(OC)c(OC(=O)[C@H](C)N)cc4oc(=O)c3n3ccc4cc(OC(=O)[C@H](C)N)c(OC)cc4c23)ccc1OC(=O)[C@H](C)N` [Compound 199] the GI50 was 73.7 nM.

Same assay, conditions: Homo sapiens, LOVO-DOX; cell killing (cytotoxic effect); read-out: LC50 LOVO-DOX
`COc1cc(-c2c3c4cc(OC)c(OC(=O)[C@H](C)N)cc4oc(=O)c3n3ccc4cc(OC(=O)[C@H](C)N)c(OC)cc4c23)ccc1OC(=O)[C@H](C)N` [Compound 199] was tested, and the CC50 was 12200 nM.

Same assay, conditions: Homo sapiens, LOVO-DOX; total growth inhibition (cytostatic effect); read-out: TGI LOVO-DOX
Work on `COc1cc(-c2c3c4cc(OC)c(OC(=O)[C@H](C)N)cc4oc(=O)c3n3ccc4cc(OC(=O)[C@H](C)N)c(OC)cc4c23)ccc1OC(=O)[C@H](C)N` [Compound 199] yielded an IC (TGI) of 499 nM.

The compounds below were run on IGROV (assay: SRB colorimetric cell growth inhibition assay, IGROV). Details: Homo sapiens, IGROV; GI=growth inhibition; read-out: GI50 IGROV.
Assay type: cell-based
Summary of the method: as §1
`COc1cc(-c2c3c4cc(OC)c(OC(=O)[C@H](C)N)cc4oc(=O)c3n3ccc4cc(OC(=O)[C@H](C)N)c(OC)cc4c23)ccc1OC(=O)[C@H](C)N` [Compound 199] gave a GI50 of 18.9 nM.

Same assay, conditions: Homo sapiens, IGROV; cell killing (cytotoxic effect); read-out: LC50 IGROV
`COc1cc(-c2c3c4cc(OC)c(OC(=O)[C@H](C)N)cc4oc(=O)c3n3ccc4cc(OC(=O)[C@H](C)N)c(OC)cc4c23)ccc1OC(=O)[C@H](C)N` [Compound 199] was tested, and the CC50 was 873 nM.

Same assay, conditions: Homo sapiens, IGROV; total growth inhibition (cytostatic effect); read-out: TGI IGROV
`COc1cc(-c2c3c4cc(OC)c(OC(=O)[C@H](C)N)cc4oc(=O)c3n3ccc4cc(OC(=O)[C@H](C)N)c(OC)cc4c23)ccc1OC(=O)[C@H](C)N` [Compound 199] showed an IC (TGI) of 96.2 nM.

What follows are compounds tested on SK-BR-3 (assay: SRB colorimetric cell growth inhibition assay, SK-BR-3). Details: Homo sapiens, SK-BR-3, SK-BR-3; GI=growth inhibition; read-out: GI50 SK-BR-3.
Assay type: cell-based
Summary of the method: as §1
In the case of `COc1cc(-c2c3c4cc(OC)c(OC(=O)[C@H](C)N)cc4oc(=O)c3n3ccc4cc(OC(=O)[C@H](C)N)c(OC)cc4c23)ccc1OC(=O)[C@H](C)N` [Compound 199], the GI50 is reported as 46.6 nM.

Same assay, conditions: Homo sapiens, SK-BR-3, SK-BR-3; cell killing (cytotoxic effect); read-out: LC50 SK-BR-3
`COc1cc(-c2c3c4cc(OC)c(OC(=O)[C@H](C)N)cc4oc(=O)c3n3ccc4cc(OC(=O)[C@H](C)N)c(OC)cc4c23)ccc1OC(=O)[C@H](C)N` [Compound 199] gave a CC50 of 8280 nM.

Same assay, conditions: Homo sapiens, SK-BR-3, SK-BR-3; total growth inhibition (cytostatic effect); read-out: TGI SK-BR-3
`COc1cc(-c2c3c4cc(OC)c(OC(=O)[C@H](C)N)cc4oc(=O)c3n3ccc4cc(OC(=O)[C@H](C)N)c(OC)cc4c23)ccc1OC(=O)[C@H](C)N` [Compound 199] showed an IC (TGI) of 97.4 nM.

— patent US7396837B2, “Antitumoral analogs of lamellarins” (Pharma Mar, S.A.U., priority 2002, dated 2008)
